According to patent US20230013304A1, “N2-ARYLMETHYL-4-HALOALKYL-PYRIDAZIN-3-ONE CFTR MODULATORS FOR THE TREATMENT OF CYSTIC FIBROSIS” (UNIVERSITE DE REIMS CHAMPAGNE-ARDENNE, priority 2019, published 2023):

Tested on: CFTR channel
Experiment: CFTR-dependent halide transport, YFP-H148Q/I152L fluorescent probe (Premo Halide Sensor kit) in osteoblasts
Assay type: cell-based
Details: for restoration of the CFTR channel activity: on average, compared with reference substances (Ivacaftor, Lumacaftor, Orkambi)
Description: To evaluate the action of the compounds according to the invention on the restoration of CFTR activity, said compounds were tested in vitro using a suitable Premo Halid Sensor kit (Invitrogen).
The transport of CFTR-dependant chloride ions is thus first evaluated in osteoblasts with the use of a fluorescent probe (halide-sensitive yellow fluorescent protein (YFP)-H148Q/I152 L protein (Life Technologies, Saint Aubin, France)) (FIG. 1).
48 h after transfection of the probe into the cell, CFTR channel activity is stimulated using a solution composed of forskolin, 3-isobutyl-1-methylxanthine and apigenine (each component in a concentration of 10 μM). An iodine solution (140 mM) was then added and the fluorescence was recorded using a plate reader (400 ms/point; Ft) over a period of 60 s (baseline; F0). The decrease in the Ft/F0 ratio represents the restoration of chloride activity of the CFTR channel.
For quantitative analyses, the gradients of the signals obtained are processed in non-linear regressions and correlated to the level of conductance of chloride ions.

Compound	restoration of CFTR channel activity compared with Ivacaftor and Lumacaftor (osteoblasts, FIG. 1)	restoration of CFTR channel activity compared with Orkambi (osteoblasts, FIG. 1)	restoration of the CFTR channel activity (osteoblasts, FIG. 1)	decrease in fluorescence (Ft/F0) in the presence of the inhibitor (CFTRinh-172 10 μM, untreated osteoblasts, control)
COc1ccc(-c2cc(C(F)(F)F)c(=O)n(Cc3ccccc3)n2)cc1OC [Compound 1, 2-benzyl-6-(3,4-dimethoxyphenyl)-4-(trifluoromethyl)pyridazin-3(2H)-one]	better restoration of CFTR channel activity than those obtained with Ivacaftor and Lumacaftor	restoration of CFTR channel activity similar to that obtained with Orkambi	150%	–
CFTRinh-172 [reference compound]	–	–	–	no decrease in fluorescence was observed
COc1ccc(Cn2nc(-c3ccc(OC(F)F)c(OC)c3)cc(C(F)(F)F)c2=O)cc1 [Compound 4, 6-(4-(difluoromethoxy)-3-methoxyphenyl)-2-(4-methoxybenzyl)-4-(trifluoromethyl)pyridazin-3(2H)-one]	better restoration of CFTR channel activity than those obtained with Ivacaftor and Lumacaftor	–	150%	–
